Measured values from US4259345A, “2-(Imidazol-1-ylmethyl)pyrroles” (Pfizer Inc., priority 1979, dated 1981).
pIC50: −log10 of the molar value.

How the values were obtained:
[1] = target: T1, Thromboxane A2 (TxA2) Synthetase (Homo sapiens, UniProt P24557); assay: Thromboxane A2 (TxA2) synthetase inhibition in vitro (isometric tension of rabbit aorta spirals); format: biochemical; settings: Indomethacin pretreated human platelet microsomes; PGH2 substrate, 2 min, 0° C; 5 min pre-incubation; read-out: Molar concentration causing 50% inhibition of TxA2 Synthetase
T1 construct: Indomethacin pretreated human platelet microsomes; from tissue; host or cells: human platelets (microsomes)
T1 sequence (P24557 1-533): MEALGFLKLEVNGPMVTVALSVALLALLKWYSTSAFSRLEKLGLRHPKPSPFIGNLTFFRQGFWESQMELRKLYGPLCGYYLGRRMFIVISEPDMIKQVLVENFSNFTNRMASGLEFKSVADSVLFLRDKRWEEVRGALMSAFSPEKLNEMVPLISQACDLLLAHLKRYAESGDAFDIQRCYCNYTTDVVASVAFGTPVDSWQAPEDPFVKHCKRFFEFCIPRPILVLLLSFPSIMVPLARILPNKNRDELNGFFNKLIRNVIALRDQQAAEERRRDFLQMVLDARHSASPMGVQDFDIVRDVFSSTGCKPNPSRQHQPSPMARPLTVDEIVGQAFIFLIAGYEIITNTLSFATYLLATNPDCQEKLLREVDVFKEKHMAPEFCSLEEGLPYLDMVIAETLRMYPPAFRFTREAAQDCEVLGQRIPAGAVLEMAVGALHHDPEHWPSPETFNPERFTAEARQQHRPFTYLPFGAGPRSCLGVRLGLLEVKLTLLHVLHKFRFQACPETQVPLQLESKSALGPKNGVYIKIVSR
Experimental: (§1) The effect of the compounds of the formula (I) on the thromboxane synthetase enzyme, and the prostacyclin synthetase and cyclo-oxygenase enzyme has been measured by the following in vitro enzyme assays:
3. Thromboxane A2 (TxA2) Synthetase
Indomethacin pretreated human platelet microsomes (Science 1976, 193, 163) are incubated (2 min.: 0° C.) with PGH2 (produced as in 1) and aliquots of the reaction mixture superfused over two rabbit aorta spirals which are separated by a delay coil (2 min.). The latter is required to allow the selective decay of the more unstable thromboxane A2 (Proc. Nat. Acad. Sci., 1975, 72, 2994) thereby enabling the separate measurement of increased isometric tension due to the TxA2 formed and the PGH2 remaining. The test compound is pre-incubated with the enzyme for 5 minutes, and its ability to inhibit the thromboxane synthetase enzyme is measured as its reduction of the TxA2 component of the isometric tension.
(§2) The results of these tests are shown in the following Table, which gives the molar concentration of each compound which caused a 50% change in the effect of the relevant enzyme on isometric tension, i.e. caused a 50% inhibition of the action of that enzyme.

[2] = target: T2, Prostacyclin (PGI2) Synthetase (Sus scrofa, UniProt A0A5G2QT35); assay: Prostacyclin (PGI2) synthetase inhibition in vitro (isometric tension of rabbit aorta strip); format: biochemical; settings: pig aorta microsomes; PGH2 substrate, 30 sec, 22° C; 5 min pre-incubation; read-out: Molar concentration causing 50% inhibition of PGI2 Synthetase
T2 construct: Pig aorta microsomes; from tissue; host or cells: pig aorta (microsomes)
T2 sequence (A0A5G2QT35 1-497): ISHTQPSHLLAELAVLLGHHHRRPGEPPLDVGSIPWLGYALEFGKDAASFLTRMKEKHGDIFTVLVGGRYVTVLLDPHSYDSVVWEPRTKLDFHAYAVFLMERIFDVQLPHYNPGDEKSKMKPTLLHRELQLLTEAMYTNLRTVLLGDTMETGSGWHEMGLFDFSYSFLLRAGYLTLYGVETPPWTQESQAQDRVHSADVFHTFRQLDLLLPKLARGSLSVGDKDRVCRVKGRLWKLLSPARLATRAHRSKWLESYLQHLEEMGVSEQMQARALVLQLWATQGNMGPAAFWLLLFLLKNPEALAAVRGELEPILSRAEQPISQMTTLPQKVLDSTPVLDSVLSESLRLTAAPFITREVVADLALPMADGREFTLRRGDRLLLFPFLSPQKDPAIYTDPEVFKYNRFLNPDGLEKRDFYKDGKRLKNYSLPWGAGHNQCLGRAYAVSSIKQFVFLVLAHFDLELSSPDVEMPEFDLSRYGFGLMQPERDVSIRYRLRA
Experimental: as §1
2. Prostacyclin (PGI2) Synthetase
Pig aorta microsomes (Nature, 1976, 263, 663) are incubated (30 sec.; 22° C.) with PGH2 produced as in 1) and aliquots bio-assayed as in 1. […] The test compound is then pre-incubated with the enzyme for 5 minutes, and its ability to prevent the decrease in tension is measured.
as §2

Cyclo-oxygenase = target: T3, Cyclo-oxygenase (Ovis aries, UniProt P05979); assay: Cyclo-oxygenase inhibition in vitro (isometric tension of rabbit aorta strip); format: biochemical; settings: ram seminal vesicle microsomes; arachidonic acid 100 μM, 1 min, 22°; 5 min pre-incubation; read-out: Molar concentration causing 50% inhibition of Cyclo-oxygenase
T3 construct: Ram seminal vesicle microsomes; from tissue; host or cells: ram seminal vesicle (microsomes)
T3 sequence (P05979 25-600): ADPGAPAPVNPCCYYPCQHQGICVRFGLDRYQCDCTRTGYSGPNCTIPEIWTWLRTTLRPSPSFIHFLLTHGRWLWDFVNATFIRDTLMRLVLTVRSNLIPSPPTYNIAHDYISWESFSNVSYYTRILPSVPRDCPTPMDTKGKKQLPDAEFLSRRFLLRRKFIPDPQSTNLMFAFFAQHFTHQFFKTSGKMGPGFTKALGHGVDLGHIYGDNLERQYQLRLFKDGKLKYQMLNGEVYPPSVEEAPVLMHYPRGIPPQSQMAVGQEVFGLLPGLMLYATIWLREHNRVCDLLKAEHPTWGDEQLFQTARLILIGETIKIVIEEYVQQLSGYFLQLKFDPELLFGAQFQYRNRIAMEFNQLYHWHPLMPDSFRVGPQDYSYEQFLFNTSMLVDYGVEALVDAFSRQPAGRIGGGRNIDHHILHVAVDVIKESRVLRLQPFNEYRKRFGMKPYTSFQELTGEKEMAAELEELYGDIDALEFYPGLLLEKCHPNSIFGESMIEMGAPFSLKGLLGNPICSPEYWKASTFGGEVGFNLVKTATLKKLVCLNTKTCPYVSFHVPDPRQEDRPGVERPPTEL
Experimental: as §1
Ram seminal vesicle microsomes (Biochemistry, 1971, 10, 2372) are incubated with arachidonic acid (100 μM: 1 min.: 22°) to produce PGH2 and aliquots of the reaction mixture injected into a stream of Krebs-bicarbonate at 37° C. (containing a mixture of antagonists (Nature, 1978, 218, 1135) and indomethacin (Brit. J. Pharmacol., 1972, 45, 451)) which is superfusing a spirally-cut rabbit aorta strip (Nature, 1969, 223, 29). The ability of a compound to inhibit the enzyme is measured by comparing the increases in isometric tension produced by PGH2 in the absence of the test compound, and following pre-incubation of the enzyme with the test compound for 5 minutes.
as §2

[3] = target: T2, Prostacyclin (PGI2) Synthetase; settings: pre-incubation with pig aorta microsome enzyme; literature; cited from earlier work
[4] = test system: human blood platelet aggregation; settings: human blood platelets, variety of aggregating agents; literature; cited from earlier work
[5] = test system: lethal effect of arachidonic acid injection; settings: intravenous arachidonic acid; literature; cited from earlier work
cyclo-oxygenase enzyme = settings: background statement; cited from earlier work
[6] = test system: aggregation of platelets in the rat aorta; settings: rats in vivo; literature; cited from earlier work

Row | SMILES | pIC50 [1] | pIC50 [2] | further results
1 | c1cc(Cn2ccnc2)n(C2CCCCC2)c1 | 6.21 |  | 
2 | CCOC(=O)c1ccc(Cn2cccc2Cn2ccnc2)cc1 | 8.62 | 4.66 | 
3 | O=C(c1ccccc1)n1cccc1Cn1ccnc1 | 8.31 | 4.46 | 
4 | CCCCCC(/C=C/C=C\C/C=C\C/C=C\CCCC(=O)O)OO (centres unmarked) [15-hydroperoxy-arachidonic acid] |  |  | prevention of the PGI2-induced decrease in tension (PGI2 synthetase inhibition) [3]: prevented completely
5 | CC(=O)Oc1ccccc1C(=O)O [aspirin] |  |  | inhibitory activity in vitro against aggregating agents [4]: show inhibitory activity in vitro; protection from the lethal effect of arachidonic acid injection [5]: protect the rabbit from the lethal effect of the injection; inhibition of the cyclo-oxygenase enzyme (cyclo-oxygenase enzyme): inhibit the cyclo-oxygenase enzyme
6 | O=C1C(CC[S+]([O-])c2ccccc2)C(=O)N(c2ccccc2)N1c1ccccc1 (centres unmarked) [sulphinpyrazone] |  |  | inhibitory activity in vitro against aggregating agents [4]: show inhibitory activity in vitro; protection from the lethal effect of arachidonic acid injection [5]: protect the rabbit from the lethal effect of the injection; prevention of platelet aggregation in extra corporeal loop of the abdominal aorta [6]: prevent the aggregation of platelets

More lines, main results first:

Row | pIC50 [1] | pIC50 [2] | SMILES | further results
7 | 8.72 | 5.19 | c1ccc(-n2cccc2Cn2ccnc2)cc1 | 
8 | 5.77 |  | c1ccc(Cn2cccc2Cn2ccnc2)cc1 | 
9 | 8.47 | 4.00 | O=C(O)c1ccc(Cn2cccc2Cn2ccnc2)cc1 | pIC50 (Cyclo-oxygenase): < 4.00
10 | 6.74 |  | O=C(O)CCn1cccc1Cn1ccnc1 [CH2 CH2 CO2 H, 1-(2-Carboxyethyl)-2-(imidazol-1-ylmethyl)pyrrole] | 
11 | 6.82 |  | C=CCn1cccc1Cn1ccnc1 [CH2 CHCH2] | 
